The values below are quoted from earlier work in patent US4883863A, “Tripeptide derivatives and antiplasmin agents containing the same” (Nitto Boseki Co., Ltd., priority 1987, dated 1989).

The target of series [1] is T1, plasmin (Homo sapiens, UniProt P00747). Set-up: purchased Sankyo (Color Test α2 -D1 Kit). The conditions noted are these: cited from earlier work.
Series [2] addresses T1, plasmin. Set-up: purchased Sankyo (Color Test α2 -D1 Kit). The conditions noted are these: cited from earlier work. This is another data set of the same source.

Like-named read-outs stand apart in the source and are kept apart here.

T1 sequence (P00747 581-810 limits assumed, species assumed): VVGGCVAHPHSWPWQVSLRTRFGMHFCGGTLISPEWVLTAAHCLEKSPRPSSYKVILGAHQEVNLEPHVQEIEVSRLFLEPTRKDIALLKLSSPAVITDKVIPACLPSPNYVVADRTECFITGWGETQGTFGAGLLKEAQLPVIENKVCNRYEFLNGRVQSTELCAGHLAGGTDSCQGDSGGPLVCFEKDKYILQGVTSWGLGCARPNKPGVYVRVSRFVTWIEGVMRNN
T1 sequence (P00747 97-580 partner limits assumed, species assumed): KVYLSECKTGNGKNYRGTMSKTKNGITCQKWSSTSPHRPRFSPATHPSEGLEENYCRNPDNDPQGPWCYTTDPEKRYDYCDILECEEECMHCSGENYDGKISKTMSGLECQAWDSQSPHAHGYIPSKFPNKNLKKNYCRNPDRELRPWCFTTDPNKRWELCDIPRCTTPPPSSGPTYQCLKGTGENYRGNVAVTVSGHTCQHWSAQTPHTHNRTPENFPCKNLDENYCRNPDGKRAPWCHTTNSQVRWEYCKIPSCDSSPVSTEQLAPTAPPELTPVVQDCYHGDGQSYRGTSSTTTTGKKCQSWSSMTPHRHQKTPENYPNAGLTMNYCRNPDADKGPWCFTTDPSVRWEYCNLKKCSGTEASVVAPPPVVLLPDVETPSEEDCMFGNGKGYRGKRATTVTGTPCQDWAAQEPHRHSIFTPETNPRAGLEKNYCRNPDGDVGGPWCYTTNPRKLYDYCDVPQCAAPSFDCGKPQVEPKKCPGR

For `NCCCCCC(=O)O` [ε-Aminocaproic acid], the “ability to inhibit decomposition of other substrates by plasmin, e.g. fibrinogen” value in series [1] (background, related art) is reported as “substantially no ability to inhibit”. In series [2] (background, related art), the “inhibition of fibrinolysis by plasmin” value is reported as “inhibit only fibrinolysis by plasmin”.
Regarding `NC[C@H]1CC[C@H](C(=O)O)CC1` [t-AMCHA, trans-aminoethylcyclohexanecarboxylic acid], the “ability to inhibit decomposition of other substrates by plasmin, e.g. fibrinogen” value in series [1] was “substantially no ability to inhibit”. Besides, the “inhibition of fibrinolysis by plasmin” value in series [2] is given as “inhibit only fibrinolysis by plasmin”.
